Results reported in article PMC4669708 (Cell Death & Disease, 2015).

Legend:
Experiment in all cases: c-ponatinib pulldown LC-MS/MS
Type in all cases: binding
CDK5 = CDK5 (Homo sapiens, UniProt Q00535)
Method in brief: (§1)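 Whole cell lysate (10 mg) was first passed over immobilized c-ponatinib, and bound proteins were eluted. After reduction, alkylation and tryptic digestion, the peptides were analysed by LC-MS/MS. Finally, binding specificity was assigned by a combined P-value, with or without free-compound competition.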

CDK8 = CDK8 (Homo sapiens, UniProt P49336)
Method in brief: as §1

MAP3K1 = MAP3K1 (Homo sapiens, UniProt Q13233)
Method in brief: as §1

MAP4K1 = MAP4K1 (Homo sapiens, UniProt Q92918)
Method in brief: as §1

MAPKAPK3 = MAPKAPK3 (Homo sapiens, UniProt Q16644)
Method in brief: as §1

MINK1 = MINK1 (Homo sapiens, UniProt Q8N4C8)
Method in brief: as §1

NAP1L1 = target: T1, NAP1L1 (Homo sapiens, UniProt P55209)
T1 sequence (P55209 1-391): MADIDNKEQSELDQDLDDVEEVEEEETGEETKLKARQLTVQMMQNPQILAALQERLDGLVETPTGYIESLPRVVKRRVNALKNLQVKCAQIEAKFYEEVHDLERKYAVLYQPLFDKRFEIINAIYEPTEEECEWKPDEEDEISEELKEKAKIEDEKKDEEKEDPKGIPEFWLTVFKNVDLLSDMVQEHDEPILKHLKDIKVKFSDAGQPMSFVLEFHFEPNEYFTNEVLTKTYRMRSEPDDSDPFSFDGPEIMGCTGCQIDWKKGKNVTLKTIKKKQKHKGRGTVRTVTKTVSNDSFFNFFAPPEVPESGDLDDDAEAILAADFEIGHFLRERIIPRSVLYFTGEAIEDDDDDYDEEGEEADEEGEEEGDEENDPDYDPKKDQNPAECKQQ
Method in brief: as §1

TYK2 = TYK2 (Homo sapiens, UniProt P29597)
Method in brief: as §1

MAPKAPK3, sequence (Q16644 whole entry): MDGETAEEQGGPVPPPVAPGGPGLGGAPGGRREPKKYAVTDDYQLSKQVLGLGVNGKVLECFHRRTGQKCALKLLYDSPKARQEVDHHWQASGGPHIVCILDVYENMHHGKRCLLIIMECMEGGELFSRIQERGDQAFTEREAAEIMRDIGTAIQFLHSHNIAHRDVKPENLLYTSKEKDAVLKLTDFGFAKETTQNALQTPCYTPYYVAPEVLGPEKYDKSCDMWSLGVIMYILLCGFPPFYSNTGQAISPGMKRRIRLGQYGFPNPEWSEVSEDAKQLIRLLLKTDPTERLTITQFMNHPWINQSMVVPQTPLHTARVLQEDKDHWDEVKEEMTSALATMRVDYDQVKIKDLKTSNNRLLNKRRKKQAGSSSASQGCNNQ
CDK8, sequence (P49336 whole entry): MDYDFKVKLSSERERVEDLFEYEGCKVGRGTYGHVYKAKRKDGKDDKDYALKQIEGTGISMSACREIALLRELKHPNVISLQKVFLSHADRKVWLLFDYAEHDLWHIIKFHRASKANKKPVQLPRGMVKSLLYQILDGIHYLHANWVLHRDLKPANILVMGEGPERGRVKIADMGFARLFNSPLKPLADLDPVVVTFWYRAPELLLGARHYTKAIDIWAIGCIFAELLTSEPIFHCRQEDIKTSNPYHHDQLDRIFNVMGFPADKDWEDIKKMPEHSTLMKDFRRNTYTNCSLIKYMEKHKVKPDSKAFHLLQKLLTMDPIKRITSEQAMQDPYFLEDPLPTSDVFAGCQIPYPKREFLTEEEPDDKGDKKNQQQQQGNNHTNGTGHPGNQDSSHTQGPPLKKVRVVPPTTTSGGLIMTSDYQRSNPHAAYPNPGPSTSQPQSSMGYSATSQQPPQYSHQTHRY
CDK8, sequence (P24863 whole entry partner): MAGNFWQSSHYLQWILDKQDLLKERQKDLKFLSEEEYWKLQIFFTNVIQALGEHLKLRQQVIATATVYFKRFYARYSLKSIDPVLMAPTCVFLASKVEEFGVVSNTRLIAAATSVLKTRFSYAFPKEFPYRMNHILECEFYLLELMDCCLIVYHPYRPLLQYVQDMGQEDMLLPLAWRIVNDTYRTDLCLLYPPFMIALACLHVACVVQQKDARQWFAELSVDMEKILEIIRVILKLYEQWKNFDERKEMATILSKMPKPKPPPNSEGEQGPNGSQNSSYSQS
TYK2, sequence (P29597 whole entry): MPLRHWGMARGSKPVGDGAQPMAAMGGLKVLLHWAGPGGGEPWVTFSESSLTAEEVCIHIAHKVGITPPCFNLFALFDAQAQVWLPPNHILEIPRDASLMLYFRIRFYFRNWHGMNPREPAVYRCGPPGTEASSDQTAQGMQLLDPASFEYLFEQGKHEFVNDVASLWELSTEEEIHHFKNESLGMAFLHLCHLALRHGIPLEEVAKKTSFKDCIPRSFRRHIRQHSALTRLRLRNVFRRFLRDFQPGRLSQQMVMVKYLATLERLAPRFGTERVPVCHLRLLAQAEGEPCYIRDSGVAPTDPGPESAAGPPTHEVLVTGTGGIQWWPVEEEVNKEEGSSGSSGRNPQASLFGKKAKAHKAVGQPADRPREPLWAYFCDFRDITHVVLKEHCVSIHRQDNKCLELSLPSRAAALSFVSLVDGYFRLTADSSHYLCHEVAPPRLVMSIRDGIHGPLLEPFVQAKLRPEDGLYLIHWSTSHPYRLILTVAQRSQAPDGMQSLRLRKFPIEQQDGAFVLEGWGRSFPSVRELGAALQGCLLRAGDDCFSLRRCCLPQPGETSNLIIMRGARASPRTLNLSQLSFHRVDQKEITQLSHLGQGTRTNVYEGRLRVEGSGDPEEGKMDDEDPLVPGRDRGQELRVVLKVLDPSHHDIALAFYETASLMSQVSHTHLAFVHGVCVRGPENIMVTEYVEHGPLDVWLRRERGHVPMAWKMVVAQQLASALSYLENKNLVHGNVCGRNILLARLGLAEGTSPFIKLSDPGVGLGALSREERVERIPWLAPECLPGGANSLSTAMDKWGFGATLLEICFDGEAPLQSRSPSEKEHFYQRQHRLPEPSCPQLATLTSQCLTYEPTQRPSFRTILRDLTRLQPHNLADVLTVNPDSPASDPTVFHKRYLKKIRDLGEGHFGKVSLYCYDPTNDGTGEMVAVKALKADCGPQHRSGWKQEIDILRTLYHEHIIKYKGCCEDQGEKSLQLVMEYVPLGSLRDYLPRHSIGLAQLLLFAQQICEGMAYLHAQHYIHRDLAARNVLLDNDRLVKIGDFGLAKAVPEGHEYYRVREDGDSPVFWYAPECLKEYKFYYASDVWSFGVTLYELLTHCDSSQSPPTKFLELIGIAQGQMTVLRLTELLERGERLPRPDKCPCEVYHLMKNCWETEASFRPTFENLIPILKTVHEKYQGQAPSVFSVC
CDK5, sequence (Q00535 whole entry): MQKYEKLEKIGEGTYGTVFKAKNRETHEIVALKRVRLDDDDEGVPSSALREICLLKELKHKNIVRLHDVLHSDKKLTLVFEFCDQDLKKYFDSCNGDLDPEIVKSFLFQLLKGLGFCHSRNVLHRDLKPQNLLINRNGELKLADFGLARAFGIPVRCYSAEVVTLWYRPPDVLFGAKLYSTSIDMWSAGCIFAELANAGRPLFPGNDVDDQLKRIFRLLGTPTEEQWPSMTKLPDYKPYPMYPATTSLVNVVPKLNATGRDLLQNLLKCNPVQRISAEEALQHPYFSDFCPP
MAP3K1, sequence (Q13233 whole entry): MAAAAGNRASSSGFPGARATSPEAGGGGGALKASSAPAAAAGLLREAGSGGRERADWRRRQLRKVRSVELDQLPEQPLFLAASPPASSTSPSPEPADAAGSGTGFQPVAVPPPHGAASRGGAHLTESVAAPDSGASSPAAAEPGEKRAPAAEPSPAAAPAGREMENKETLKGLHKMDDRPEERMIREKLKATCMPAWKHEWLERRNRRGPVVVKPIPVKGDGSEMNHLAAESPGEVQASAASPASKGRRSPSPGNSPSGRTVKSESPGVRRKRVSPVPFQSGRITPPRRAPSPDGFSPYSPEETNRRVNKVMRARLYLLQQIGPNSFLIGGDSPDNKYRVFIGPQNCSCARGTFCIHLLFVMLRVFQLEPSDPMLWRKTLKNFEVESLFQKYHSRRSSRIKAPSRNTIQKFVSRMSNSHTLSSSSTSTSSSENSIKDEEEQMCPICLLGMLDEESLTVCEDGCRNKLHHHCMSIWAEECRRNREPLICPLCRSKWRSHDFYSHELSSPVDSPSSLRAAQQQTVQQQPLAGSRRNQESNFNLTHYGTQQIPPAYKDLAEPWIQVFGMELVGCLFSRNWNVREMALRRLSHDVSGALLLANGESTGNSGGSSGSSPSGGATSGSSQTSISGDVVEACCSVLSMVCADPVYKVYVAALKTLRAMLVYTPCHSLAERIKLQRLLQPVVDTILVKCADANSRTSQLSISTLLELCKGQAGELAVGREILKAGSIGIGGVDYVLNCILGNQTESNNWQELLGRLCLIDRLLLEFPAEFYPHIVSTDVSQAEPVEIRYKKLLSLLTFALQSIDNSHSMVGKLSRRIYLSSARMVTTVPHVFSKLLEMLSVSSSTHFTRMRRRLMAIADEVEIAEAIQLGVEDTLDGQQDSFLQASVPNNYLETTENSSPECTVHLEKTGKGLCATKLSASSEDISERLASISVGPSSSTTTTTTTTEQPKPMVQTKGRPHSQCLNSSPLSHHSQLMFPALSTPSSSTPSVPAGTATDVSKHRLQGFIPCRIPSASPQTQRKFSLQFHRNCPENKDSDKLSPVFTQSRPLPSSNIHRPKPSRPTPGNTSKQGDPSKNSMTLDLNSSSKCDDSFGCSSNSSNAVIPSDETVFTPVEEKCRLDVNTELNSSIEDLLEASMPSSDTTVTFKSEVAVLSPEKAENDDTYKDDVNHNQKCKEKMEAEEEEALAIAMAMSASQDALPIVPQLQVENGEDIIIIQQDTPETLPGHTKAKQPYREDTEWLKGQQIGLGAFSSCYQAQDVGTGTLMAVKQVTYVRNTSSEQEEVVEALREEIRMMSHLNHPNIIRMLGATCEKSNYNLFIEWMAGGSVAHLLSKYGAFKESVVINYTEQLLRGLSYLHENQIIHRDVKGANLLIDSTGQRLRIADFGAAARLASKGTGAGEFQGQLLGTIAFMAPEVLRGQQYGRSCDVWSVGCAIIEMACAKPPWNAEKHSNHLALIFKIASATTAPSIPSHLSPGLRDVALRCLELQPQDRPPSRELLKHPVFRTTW
MAP4K1, sequence (Q92918 whole entry): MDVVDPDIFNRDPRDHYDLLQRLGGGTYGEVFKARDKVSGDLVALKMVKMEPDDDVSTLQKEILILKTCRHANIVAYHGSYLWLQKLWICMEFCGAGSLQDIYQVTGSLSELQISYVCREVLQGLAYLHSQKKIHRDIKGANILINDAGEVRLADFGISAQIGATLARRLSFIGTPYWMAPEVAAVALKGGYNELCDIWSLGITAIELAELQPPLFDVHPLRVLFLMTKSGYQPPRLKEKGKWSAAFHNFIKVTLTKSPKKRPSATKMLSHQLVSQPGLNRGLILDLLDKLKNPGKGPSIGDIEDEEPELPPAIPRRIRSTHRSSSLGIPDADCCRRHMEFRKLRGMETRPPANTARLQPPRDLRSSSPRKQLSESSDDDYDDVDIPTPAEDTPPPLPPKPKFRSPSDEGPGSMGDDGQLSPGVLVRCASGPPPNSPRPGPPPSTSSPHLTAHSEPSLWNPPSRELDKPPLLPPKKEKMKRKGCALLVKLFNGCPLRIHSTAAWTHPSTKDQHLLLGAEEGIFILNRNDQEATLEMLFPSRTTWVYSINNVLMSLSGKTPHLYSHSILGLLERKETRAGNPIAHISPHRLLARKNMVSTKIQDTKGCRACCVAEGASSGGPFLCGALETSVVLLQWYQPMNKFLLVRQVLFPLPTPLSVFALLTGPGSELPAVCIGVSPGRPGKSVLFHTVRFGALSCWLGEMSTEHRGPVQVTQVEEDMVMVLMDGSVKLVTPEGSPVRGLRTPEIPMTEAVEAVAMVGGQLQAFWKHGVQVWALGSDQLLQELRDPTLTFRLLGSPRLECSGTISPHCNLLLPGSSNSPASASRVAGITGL

For `Cc1ccc(C(=O)Nc2ccc(CN3CCN(CCCN)CC3)c(C(F)(F)F)c2)cc1C#Cc1cnc2cccnn12` [c-ponatinib], the “Av. SC comp.” value (CDK5; + free ponatinib) was 2.75, the “Total SC comp.” value (CDK5; + free ponatinib) was 11 and the “Av. SC” value (CDK5; no competitor) was 7.25. The “Total SC” value (CDK5; no competitor) was 29, the “Av. SC comp.” value (CDK8; + free ponatinib) was 0 and the “Total SC comp.” value (CDK8; + free ponatinib) was 0. For the same molecule, the “Av. SC” value (CDK8; no competitor) was 3.75, the “Total SC” value (CDK8; no competitor) was 15 and the “Av. SC comp.” value (MAP3K1; + free ponatinib) was 0. The “Total SC comp.” value (MAP3K1; + free ponatinib) was 0, the “Av. SC” value (MAP3K1; no competitor) was 9 and the “Total SC” value (MAP3K1; no competitor) was 36. For the same molecule, the “Av. SC comp.” value (MAP4K1; + free ponatinib) was 2.5, the “Total SC comp.” value (MAP4K1; + free ponatinib) was 10 and the “Av. SC” value (MAP4K1; no competitor) was 46.75. For the same molecule, the “Total SC” value (MAP4K1; no competitor) was 187, the “Av. SC comp.” value (MAPKAPK3; + free ponatinib) was 0 and the “Total SC comp.” value (MAPKAPK3; + free ponatinib) was 0. For the same molecule, the “Av. SC” value (MAPKAPK3; no competitor) was 10.5, the “Total SC” value (MAPKAPK3; no competitor) was 42 and the “Av. SC comp.” value (MINK1; + free ponatinib) was 0. The “Total SC comp.” value (MINK1; + free ponatinib) was 0, the “Av. SC” value (MINK1; no competitor) was 4 and the “Total SC” value (MINK1; no competitor) was 16. For the same molecule, the “Av. SC comp.” value (NAP1L1; + free ponatinib) was 1.25, the “Total SC comp.” value (NAP1L1; + free ponatinib) was 5 and the “Av. SC” value (NAP1L1; no competitor) was 2. For the same molecule, the “Total SC” value (NAP1L1; no competitor) was 8, the “Av. SC comp.” value (TYK2; + free ponatinib) was 0 and the “Total SC comp.” value (TYK2; + free ponatinib) was 0. For the same molecule, the “Av. SC” value (TYK2; no competitor) was 14 and the “Total SC” value (TYK2; no competitor) was 56.
